Measured values: PMC10326086 (Cancer Chemotherapy and Pharmacology, 2023)
Where two headings read alike, the source gives them in different places.

How the values were obtained:
[1] = Plasma pharmacokinetics of adavosertib
[2] = tested on: patients with advanced solid tumors; details: cited from earlier work
[3] = tested on: ECG intervals in patients with advanced solid tumors; details: human, in vivo
Description: (§1) On day − 2, patients underwent dECG to determine eligibility by central review. On day − 1, baseline dECG assessments were performed at clock times matched to the planned/scheduled dECG assessment times on days 1 and 3. […] Doses were administered under fasting conditions (2 h pre-dose to 2 h post-dose), with prescribed anti-emetic(s) given orally 30 min prior to each dose [20].
(§2) Patients had their final dECG/PK assessments on day 4, 24 h post-dose. Baseline for dECG assessments was defined as the time-matched observation on day − 1. Triplicate dECG recordings were taken within an approximate 5-min period prior to PK sample collection and as close to the scheduled times as possible. Patients rested for ≥ 10 min prior to dECG recording and were in the same supine body position for all recordings. HR and RR, QT, PR, and QRS interval parameters were recorded. Standardized equipment was provided by the central ECG laboratory. Recorded dECGs were sent to the central ECG laboratory for review and interpretation, using their standard operating procedures and with manual adjudication (3 beat on lead II).

[4] = tested on: QTcF interval in patients with advanced solid tumors; details: human, in vivo
Description: Estimates were made of the mean change in QTcF at the geometric mean Cmax on days 1 and 3 from the fitted model, with corresponding 90% two-sided confidence intervals (CIs).

[5] = tested on: patients with advanced solid tumors; details: human, in vivo
Description: (§3) Safety was appraised throughout the study by the assessment of adverse events (AEs; graded by Common Terminology Criteria for Adverse Events [CTCAE], version 4.03), physical examination, and evaluation of vital signs, ECG, and laboratory data (clinical chemistry and hematology). Dose reductions were not allowed.

[6] = tested on: ECG intervals in patients with advanced solid tumors; test: Digital 12-lead ECG (dECG) assessments, time-matched change from baseline; details: over the treatment period (days 1–3, 24 h post-dose)
Description: as §1, §2

[7] = set-up: method as in doi:10.1158/1538-7445.am2019-ct012; details: after 200 mg bid dosing; cited from earlier work
patients = tested on: patients; set-up: method as in AstraZeneca, data on file, 2022; details: preliminary data; ref AstraZeneca, data on file, 2022; cited from earlier work
[8] = tested on: patients with advanced solid tumors; test: Safety and tolerability (adverse events, CTCAE version 4.03); details: n = 21
Description: as §3

QTc interval = details: in vivo; cited from earlier work
[9] = human, in vivo, 225 mg, 2.5 days

## C=CCn1c(=O)c2cnc(Nc3ccc(N4CCN(C)CC4)cc3)nc2n1-c1cccc(C(C)(C)O)n1 [adavosertib]
[1]; day 3
  CLss/F, arithmetic mean (SD): 43.2 L/h
  CLss/F, median: 41.5 L/h
[1]; human, in vivo
  AUC0–12, median: 5.383 µM·h
  Cavg, arithmetic mean (SD): 944.8 nM
  Cavg, geometric mean: 901.2 nM
  Cavg, median: 898.9 nM
  Cmin, arithmetic mean (SD): 517.7 nM
  Cmin, geometric mean: 410.4 nM
  Cmin, median: 499.0 nM
  Tmax: 3 h
  tmax, median: 2.5 h
[1]; [9]
  Accumulation for AUC0–12 over 2.5 days of bid dosing: approximately 2.3 fold
  Accumulation for Cmax over 2.5 days of bid dosing: ~2.1 fold
[1]; human, in vivo, AUC0–12, arithmetic mean (SD)
  AUC(0-t): 11.3 µM·h
[1]; human, in vivo, AUC0–12, median
  AUC(0-t): 10.6 µM·h
[1]; human, in vivo, arithmetic mean (SD)
  Cmax: 1500 nM
[1]; human, in vivo, median
  Cmax: 1520 nM
[1]; human, in vivo, po, 225 mg, AUC0–12, geometric mean
  AUC(0-t): 4.94 µM·h
[2]; qd dosing, between 200 and 300 mg, single and multiple doses, preliminary
  Dose proportionality of exposure: exposure increased more than dose proportionally
[2]; twice daily (bid) over 2.5 days per week per 21-day cycle
  Maximum tolerated dose: 225 mg
[3]; 1 day
  Mean change in HR, range over time points: − 1.7 to 2.9
  Mean change in PR interval, range over time points: − 4.4 to 3.5
  Mean change in QRS interval, range over time points: − 1.2 to 1.4
  Mean change in RR interval, range over time points: − 38.0 to 22.3
  Patients with QTcF increase > 60 ms at any time during treatment: 0 n (%)
  Patients with QTcF value > 450 ms and increase > 30 ms: 0 n (%)
  Patients with QTcF value > 450 ms at any time during treatment: 0 n (%)
  Patients with QTcF value > 480 ms at any time during treatment: 0 n (%)
  Patients with QTcF value > 500 ms and increase > 60 ms: 0 n (%)
  Patients with QTcF value > 500 ms at any time during treatment: 0 n (%)
[3]; 3 day
  Mean change in HR, range over time points: 1.4 to 9.5 bpm
  Mean change in PR interval, range over time points: − 4.4 to 0.3
  Mean change in QRS interval, range over time points: − 1.8 to − 2.0
  Mean change in RR interval, range over time points: − 102.5 to − 30.4
  Patients with QTcF increase > 30 ms at any time during treatment: 1 (4.8) n (%)
  Patients with QTcF increase > 60 ms at any time during treatment: 0 n (%)
  Patients with QTcF value > 450 ms and increase > 30 ms: 0 n (%)
  Patients with QTcF value > 450 ms at any time during treatment: 0 n (%)
  Patients with QTcF value > 480 ms at any time during treatment: 0 n (%)
  Patients with QTcF value > 500 ms and increase > 60 ms: 0 n (%)
  Patients with QTcF value > 500 ms at any time during treatment: 0 n (%)
[4]
  Day effect estimate, concentration–ΔQTcF model: −1.6
  Intercept estimate, concentration–ΔQTcF model: −2.4
  Upper limits of predicted 90% CIs for ΔQTcF, sensitivity analysis: < 1.5 ms
[5]
  Causally related AEs of any grade: Anemia: 1 (4.8) Number of patients (%)
  Causally related AEs of any grade: Constipation: 1 (4.8) Number of patients (%)
  Causally related AEs of any grade: Decreased appetite: 1 (4.8) Number of patients (%)
  Causally related AEs of any grade: Diarrhea: 6 (28.6) Number of patients (%)
  Causally related AEs of any grade: Vomiting: 2 (9.5) Number of patients (%)
  Causally related grade ≥3 AEs: Anemia: 1 (4.8) Number of patients (%)
  Causally related grade ≥3 AEs: Constipation: 0 Number of patients (%)
  Causally related grade ≥3 AEs: Decreased appetite: 0 Number of patients (%)
  Causally related grade ≥3 AEs: Diarrhea: 1 (4.8) Number of patients (%)
  Causally related grade ≥3 AEs: Nausea: 1 (4.8) Number of patients (%)
  Causally related grade ≥3 AEs: Vomiting: 1 (4.8) Number of patients (%)
[5]; 2.5 days
  Causally related AEs of any grade: Any AE: 11 (52.4) Number of patients (%)
  Causally related AEs of any grade: Nausea: 6 (28.6) Number of patients (%)
  Causally related grade ≥3 AEs: Any AE: 2 (9.5) Number of patients (%)
  Patients who discontinued treatment because of AEs: 9.5%
  Patients with AEs: 76.2%
  Patients with CTCAE grade 3 anemia: 4.8%
  Patients with CTCAE grade 3 diarrhea: 4.8%
  Patients with CTCAE grade 3 hypotension: 4.8%
  Patients with CTCAE grade 3 nausea: 4.8%
  Patients with a serious AE (vomiting, not considered drug related): 4.8%
  Patients with diarrhea (any causality): 33.3%
  Patients with nausea (any causality): 33.3%
  Patients with treatment-related AEs: 52.4%
  Patients with treatment-related anemia: 4.8%
  Patients with treatment-related constipation: 4.8%
  Patients with treatment-related decreased appetite: 4.8%
  Patients with treatment-related diarrhea: 28.6%
  Patients with treatment-related nausea: 28.6%
  Patients with treatment-related vomiting: 9.5%
  Patients with vomiting (any causality): 23.8%
  Total number of treatment-related AEs: 17
[6]
  Patients with QTcF > 450 ms: No patient
  Patients with increase in QTcF of > 60 ms: No patient
[7]
  AUC0–12: 8.1 µM·h
patients
  Adverse drug reactions to adavosertib monotherapy: include QTc prolongation
[8]
  AEs with an outcome of death: No AEs with an outcome of death

## CN[C@H]1CC[C@@H](c2ccc(Cl)c(Cl)c2)c2ccccc21 [sertraline]
QTc interval
  Risk of TdP: conditional risk of TdP
